# Read-outs that look alike come from different tables or passages of the source.
# Key:
# [1] = Solubility determination in water by HPLC; assay type: physicochemical; settings: suspension in water, 25° C.
# Protocol: HPLC detection was performed using the crystalline form 1 as a standard, with its concentration of 204.2 μg*mL^−1 and its content set as 100%, and the detection was performed 7 times. The average peak area was 159.691 mAU*min (retention time was 7.4 min).
# [2] = Pharmacokinetic experiment, oral administration; assay type: in vivo, Sprague Dawley rats; settings: rat, oral 10 mg/kg; for AUC(0-t) / Cmax: suspension in 0.5% CMC, 10 mg/kg
# Protocol: Twelve Sprague Dawley rats with weight of 230-250 g were randomly divided into 2 groups, wherein each group consisted of 3 males and 3 females. Crystalline forms 1 and 2 were separately prepared as suspensions in 0.5% carboxymethylcellulose (CMC). The rats were fasted for 12 hours with free access to water and then orally administered at a dose of 10 mg/kg. Blood samples (0.2-0.3 ml) before and after 15, 30, 60, 120, 240, 360, 480, 720, 1440 minutes of the oral administration were collected in heparin anticoagulation tubes, which were then centrifuged to obtain plasma. The plasma was stored at −20° C., followed by analysis using API 4000 MS in conjunction with a HPLC unit. The pharmacokinetic parameters Cmax and AUC were calculated according to the determined plasma concentrations and summarized in Table 22.
# [3] = Thermodynamic stability experiment in solvents at 60° C. (XRD); assay type: physicochemical; settings: one day
# Protocol: The crystalline form 1, crystalline form 2, crystalline form 3 and crystalline form 7 of the compound of formula I were mixed with acetone, ethyl acetate, methanol, water and tetrahydrofuran respectively, and then kept at 60° C. for one day for the investigation of the thermodynamic stability of each crystalline form. Insoluble solid was recovered by filtration and analyzed by XRD. Analysis conditions: Shimadzu XRD-6000, CuK source (1.54056 A) 40 kV, 30 mA; detection angle: 5-50°, speed: 5°/min.
# [4] = Grinding stability experiment (XRD); assay type: physicochemical; settings: ground and sieved, US standard 200-300 mesh
# Protocol: Crystalline form 1 was ground and sieved. The US standard 200-300 mesh sieved samples were collected and XRD analyzed. Analysis conditions: Shimadzu XRD-6000, CuK source (1.54056 Å) 40 kV, 30 mA; detection angle: 5-50°, speed: 5°/min.
# [5] = Moisture-induced crystallization experiment (XRD); assay type: physicochemical; settings: room temperature, 58-97% RH, up to 10 days
# Protocol: About 10 mg of the crystalline form 1 was taken and placed in the corresponding environment, and the solid was detection by XRD at different time.
# [6] = Stability of crystalline form 1 in aqueous methanol (XRPD detection); assay type: physicochemical
# From the text: The stability of the crystalline form 1 in aqueous methanol solution at different temperature and for different time is as follows.
# [7] = Determination of solubility in conventional solvents, visual inspection method; assay type: physicochemical; settings: thermodynamic from solid, 25° C.
# From the text: If the sample is still not dissolved at a specific concentration, its solubility is expressed as “<specific concentration”;
# [8] = Tissue accumulation experiment in tumor-bearing mice; assay type: in vivo, BALB/cA nude mice; design: content in Tumor / content in Liver / content in Kidney / content in Heart / content in Lung / content in Muscle / content in Brain: unit not given here
# Protocol: Human colon cancer H-29 cells were implanted into the armpits of BALB/cA nude mice. Seven days after the implantation of H-29 cells, 8 female mice were administered with the crystalline form 1 (twice a day) at 40 mg/kg or sunitinib at 40 mg/kg (once a day). The drug administration was continuous for 21 days. Plasma, tissue and tumor samples were collected for analysis 4 hours after the administration on the 22nd day morning.
# [9] = Dynamic vapor sorption (DVS) / moisture absorption; assay type: physicochemical; settings: for weight change (DVS): range of 0% RH to 80% RH, 25° C.
# Protocol: (4) Dynamic Water Adsorption (DVS), TA Instruments Q5000 TGA; controlling software: Thermal Advantage; analysis software: Universal Analysis; sample plate: platinum crucible; amount of the sample to be detected: 1-10 mg; protective gas: nitrogen; gas flow fate: 10 mL/min; detection method: equilibration at 25° C., humidity: 0%, isothermal treatment: 90 min, weight change to be detected: from 0% RH to 80% RH;
# The moisture content, solubility and dissolution rate of the crystalline forms 1 and 2 were detected using the methods described above. The results are shown in Table 21, which indicate that the solubility, dissolution, and moisture content (total pharmaceutical properties) of the crystalline form 1 are higher than that of the crystalline form 2. Moreover, the crystalline forms 1 and 2 have the highest solubility in methanol.
# [10] = 40 mg/kg for 21 days (crystalline form 1 twice a day, sunitinib once a day), 4 hours after administration on day 22
smiles,measurement,setting,value
"Cc1[nH]c(/C=C2\C(=O)Nc3ccc(F)cc32)c(C)c1C(=O)N[C@H]1CCN(C(=O)N(C)C)C1 [crystalline form 1, 5-[5-fluoro-2-oxo-1,2-dihydro-indole-(3Z)-ylidenemethyl]-2,4-dimethyl-1H-pyrrole-3-carboxylic acid ((S)-1-dimethylcarbamoyl-pyrrolidin-3-yl)-amide]",concentration (solubility in water),[1]; 0.5 hours,1.12 µg/mL
same,concentration (solubility in water),[1]; 4 hours,1.32 µg/mL
same,Cmax relative to crystalline form 2,[2],about 4 times
same,exposure (AUC) relative to crystalline form 2,[2],about 3 times
same,AUC(0-t),[2]; average value,10488.3 ng·h/mL
same,Cmax,[2]; average value,1340.3 ng/mL
same,AUC(0-t),[2]; female 1,3536.6 ng·h/mL
same,Cmax,[2]; female 1,593.9 ng/mL
same,AUC(0-t),[2]; female 2,28571.4 ng·h/mL
same,Cmax,[2]; female 2,2649.0 ng/mL
same,AUC(0-t),[2]; female 3,16634.2 ng·h/mL
same,Cmax,[2]; female 3,2033.3 ng/mL
same,AUC(0-t),[2]; male 1,3180.0 ng·h/mL
same,Cmax,[2]; male 1,716.6 ng/mL
same,AUC(0-t),[2]; male 2,6766.0 ng·h/mL
same,Cmax,[2]; male 2,1071.3 ng/mL
same,AUC(0-t),[2]; male 3,4241.5 ng·h/mL
same,Cmax,[2]; male 3,977.7 ng/mL
same,crystalline form recovered (XRD),"[3]; acetone, ethyl acetate, methanol or water, conversion not complete in methanol",converted to crystalline form 2
same,crystalline form recovered (XRD),[3]; tetrahydrofuran (THF),to crystalline form 3
same,stability during grinding (XRD pattern before and after),[4],remained stable
same,stability under humidity conditions (overall),[5],stable
same,XRPD detection,"[6]; 2.0 g in 50 mL methanol, moisture (KF) 0.1%, 20-30° C., 2 hrs",form 1
same,XRPD detection,"[6]; 2.0 g in 50 mL methanol, moisture (KF) 0.1%, 20-30° C., 4 hrs",form 1
same,XRPD detection,"[6]; 2.0 g in 50 mL methanol, moisture (KF) 0.1%, 20-30° C., 8 hrs",form 1
same,XRPD detection,"[6]; 2.0 g in 50 mL methanol, moisture (KF) 0.1%, 20-30° C., 21 hrs",form 1
same,XRPD detection,"[6]; 2.0 g in 50 mL methanol, moisture (KF) 5.2%, 20-30° C., 2 hrs",form 1
same,XRPD detection,"[6]; 2.0 g in 50 mL methanol, moisture (KF) 5.2%, 20-30° C., 4 hrs",form 1
same,XRPD detection,"[6]; 2.0 g in 50 mL methanol, moisture (KF) 5.2%, 20-30° C., 8 hrs",form 1
same,XRPD detection,"[6]; 2.0 g in 50 mL methanol, moisture (KF) 5.2%, 20-30° C., 21 hrs",form 1
same,XRPD detection,"[6]; 2.0 g in 50 mL methanol, moisture (KF) 10%, 20-30° C., 2 hrs",form 1
same,XRPD detection,"[6]; 2.0 g in 50 mL methanol, moisture (KF) 10%, 20-30° C., 4 hrs",form 1
same,XRPD detection,"[6]; 2.0 g in 50 mL methanol, moisture (KF) 10%, 20-30° C., 8 hrs",form 1
same,XRPD detection,"[6]; 2.0 g in 50 mL methanol, moisture (KF) 10%, 20-30° C., 21 hrs",form 1
same,XRPD detection,"[6]; 5.0 g in 50 mL methanol, moisture (KF) 0.1%, reflux, 2 hrs",form 1
same,XRPD detection,"[6]; 5.0 g in 50 mL methanol, moisture (KF) 0.1%, reflux, 4 hrs",form 1
same,XRPD detection,"[6]; 5.0 g in 50 mL methanol, moisture (KF) 0.1%, reflux, 8 hrs",form 2
same,XRPD detection,"[6]; 5.0 g in 50 mL methanol, moisture (KF) 0.1%, reflux, 21 hrs",form 2
same,XRPD detection,"[6]; 5.0 g in 50 mL methanol, moisture (KF) 5.2%, reflux, 2 hrs",form 1
same,XRPD detection,"[6]; 5.0 g in 50 mL methanol, moisture (KF) 5.2%, reflux, 4 hrs",form 1 + form 2
same,XRPD detection,"[6]; 5.0 g in 50 mL methanol, moisture (KF) 5.2%, reflux, 8 hrs",form 2
same,XRPD detection,"[6]; 5.0 g in 50 mL methanol, moisture (KF) 5.2%, reflux, 21 hrs",form 2
same,XRPD detection,"[6]; 5.0 g in 50 mL methanol, moisture (KF) 10%, reflux, 2 hrs",form 1
same,XRPD detection,"[6]; 5.0 g in 50 mL methanol, moisture (KF) 10%, reflux, 4 hrs",form 2
same,XRPD detection,"[6]; 5.0 g in 50 mL methanol, moisture (KF) 10%, reflux, 8 hrs",form 2
same,XRPD detection,"[6]; 5.0 g in 50 mL methanol, moisture (KF) 10%, reflux, 21 hrs",form 2
same,Solubility,"[7]; acetone, organic solvent or mixture, read-out: solubility in acetone",1000 to 2500 µg/mL
same,Solubility,"[7]; acetonitrile, organic solvent or mixture, read-out: solubility in acetonitrile",< 1000 µg/mL
same,Solubility,"[7]; ethanol, organic solvent or mixture, read-out: solubility in ethanol",1000 to 2500 µg/mL
same,Solubility,"[7]; ethyl acetate, organic solvent or mixture, read-out: solubility in ethyl acetate",< 1000 µg/mL
same,Solubility,"[7]; methanol, organic solvent or mixture, read-out: solubility in methanol",5000 to 12500 µg/mL
same,Solubility,"[7]; methyl tert-butyl ether, organic solvent or mixture, read-out: solubility in methyl tert-butyl ether",< 1000 µg/mL
same,Solubility,"[7]; n-heptane, organic solvent or mixture, read-out: solubility in n-heptane",< 1000 µg/mL
same,Solubility,"[7]; tetrahydrofuran, organic solvent or mixture, read-out: solubility in tetrahydrofuran",1000 to 2500 µg/mL
same,Solubility,"[7]; toluene, organic solvent or mixture, read-out: solubility in toluene",< 1000 µg/mL
same,Solubility,"[7]; water, read-out: solubility in water",< 1000 µg/mL
same,content in Brain,[8]; [10],9.3
same,content in Heart,[8]; [10],124.8
same,content in Kidney,[8]; [10],418.3
same,content in Liver,[8]; [10],"1,715.3"
same,content in Lung,[8]; [10],144.9
same,content in Muscle,[8]; [10],77.6
same,content in Plasma,[8]; [10],191.6
same,content in Tumor,[8]; [10],153.4
same,"content in plasma, compared with sunitinib","[8]; 40 mg/kg twice a day, 21 days",comparable to that of sunitinib
same,"tissue accumulation in all tested tissues, compared with sunitinib","[8]; 40 mg/kg twice a day, 21 days",significantly lower than that of sunitinib
same,Moisture absorption,[9]; RH 50%,2.015%
same,Moisture absorption,[9]; RH 80%,2.578%
same,weight change (DVS),[9],about 2.8%
same,weight change (DVS),[9]; listed as Crystalline form 1,2.8%
